Source: ChEMBL document CHEMBL4396905, “Design, synthesis and in vitro evaluation of 6-amide-2-aryl benzoxazole/benzimidazole derivatives against tumor cells by inhibiting VEGFR-2 kinase” (Eur J Med Chem, 2019)
Activity calls are given as the source filed them. The rule behind the calls is not given here.

Legend:
Chorioallantoic membrane [1] = assay: Antiangiogenic activity in chicken chorioallantoic membrane assessed as reduction in number of blood vessels at 10 nM per egg measured after 48 hrs by CAM assay relative to control; format: functional, cell membranes; conditions: Gallus gallus
HepG2 [2] = assay: Induction of apoptosis in human HepG2 cells assessed as necrotic cells at 1 nM incubated for 24 hrs by dUTP-FITC/PI staining based flow cytometry (reference value: 10.2%); format: functional
Chorioallantoic membrane [3] = assay: Antiangiogenic activity in chicken chorioallantoic membrane assessed as reduction in number of blood vessels at 1 nM per egg measured after 48 hrs by CAM assay relative to control; format: functional, cell membranes; conditions: Gallus gallus
HepG2 [4] = assay: Cell cycle arrest in human HepG2 cells assessed as accumulation at G0/G1 phase at 1 nM incuabted for 24 hrs by PI staining based flow cytometry (reference value: 47.9%); format: functional
HepG2 [5] = assay: Cell cycle arrest in human HepG2 cells assessed as accumulation at S phase at 10 nM incuabted for 24 hrs by PI staining based flow cytometry (reference value: 9.8%); format: functional
HUVEC [6] = assay: Cell cycle arrest in human HUVEC cells assessed as accumulation at G0/G1 phase at 1 nM incuabted for 24 hrs by PI staining based flow cytometry (reference value: 43.2%); format: functional
HepG2 [7] = assay: Cell cycle arrest in human HepG2 cells assessed as accumulation at G2/M phase at 10 nM incuabted for 24 hrs by PI staining based flow cytometry (reference value: 42.3%); format: functional
HepG2 [8] = assay: Induction of apoptosis in human HepG2 cells assessed as apoptotic cells at 1 nM incubated for 24 hrs by dUTP-FITC/PI staining based flow cytometry (reference value: 3.3%); format: functional
MDA-MB-231 = assay: Antiproliferative activity against human MDA-MB-231 cells expressing EGFR assessed as reduction in cell growth incubated for 48 hrs by MTT assay; format: functional, cell-based; conditions: MDA-MB-231, 48 h
HUVEC [9] = assay: Cell cycle arrest in human HUVEC cells assessed as accumulation at G2/M phase at 10 nM incuabted for 24 hrs by PI staining based flow cytometry (reference value: 46.4%); format: functional
HepG2 [10] = assay: Cell cycle arrest in human HepG2 cells assessed as accumulation at G2/M phase at 1 nM incuabted for 24 hrs by PI staining based flow cytometry (reference value: 42.3%); format: functional
HepG2 [11] = assay: Antiproliferative activity against human HepG2 cells expressing VEGFR2 assessed as reduction in cell growth incubated for 48 hrs by MTT assay; format: functional, cell-based; conditions: HepG2, 48 h
HUVEC [12] = assay: Cell cycle arrest in human HUVEC cells assessed as accumulation at G2/M phase at 1 nM incuabted for 24 hrs by PI staining based flow cytometry (reference value: 46.4%); format: functional
[13] = target: Epidermal growth factor receptor (Homo sapiens) (UniProt P00533); assay: Inhibition of EGFR (unknown origin) using Poly (Glu, Tyr) 4:1 as substrate at 1 uM preincubated with substrate followed by enzyme challenge for 1 hr by ELISA relative to control
[14] = target: T1, Vascular endothelial growth factor receptor 2 (Homo sapiens, UniProt P35968); assay: Inhibition of VEGFR2 in human HUVEC cells assessed as reduction in phosphorylation of VEGFR2 at 2 to 4 uM incubated for 24 hrs by Western blot analysis; format: cell-based
T1 sequence (P35968 whole entry): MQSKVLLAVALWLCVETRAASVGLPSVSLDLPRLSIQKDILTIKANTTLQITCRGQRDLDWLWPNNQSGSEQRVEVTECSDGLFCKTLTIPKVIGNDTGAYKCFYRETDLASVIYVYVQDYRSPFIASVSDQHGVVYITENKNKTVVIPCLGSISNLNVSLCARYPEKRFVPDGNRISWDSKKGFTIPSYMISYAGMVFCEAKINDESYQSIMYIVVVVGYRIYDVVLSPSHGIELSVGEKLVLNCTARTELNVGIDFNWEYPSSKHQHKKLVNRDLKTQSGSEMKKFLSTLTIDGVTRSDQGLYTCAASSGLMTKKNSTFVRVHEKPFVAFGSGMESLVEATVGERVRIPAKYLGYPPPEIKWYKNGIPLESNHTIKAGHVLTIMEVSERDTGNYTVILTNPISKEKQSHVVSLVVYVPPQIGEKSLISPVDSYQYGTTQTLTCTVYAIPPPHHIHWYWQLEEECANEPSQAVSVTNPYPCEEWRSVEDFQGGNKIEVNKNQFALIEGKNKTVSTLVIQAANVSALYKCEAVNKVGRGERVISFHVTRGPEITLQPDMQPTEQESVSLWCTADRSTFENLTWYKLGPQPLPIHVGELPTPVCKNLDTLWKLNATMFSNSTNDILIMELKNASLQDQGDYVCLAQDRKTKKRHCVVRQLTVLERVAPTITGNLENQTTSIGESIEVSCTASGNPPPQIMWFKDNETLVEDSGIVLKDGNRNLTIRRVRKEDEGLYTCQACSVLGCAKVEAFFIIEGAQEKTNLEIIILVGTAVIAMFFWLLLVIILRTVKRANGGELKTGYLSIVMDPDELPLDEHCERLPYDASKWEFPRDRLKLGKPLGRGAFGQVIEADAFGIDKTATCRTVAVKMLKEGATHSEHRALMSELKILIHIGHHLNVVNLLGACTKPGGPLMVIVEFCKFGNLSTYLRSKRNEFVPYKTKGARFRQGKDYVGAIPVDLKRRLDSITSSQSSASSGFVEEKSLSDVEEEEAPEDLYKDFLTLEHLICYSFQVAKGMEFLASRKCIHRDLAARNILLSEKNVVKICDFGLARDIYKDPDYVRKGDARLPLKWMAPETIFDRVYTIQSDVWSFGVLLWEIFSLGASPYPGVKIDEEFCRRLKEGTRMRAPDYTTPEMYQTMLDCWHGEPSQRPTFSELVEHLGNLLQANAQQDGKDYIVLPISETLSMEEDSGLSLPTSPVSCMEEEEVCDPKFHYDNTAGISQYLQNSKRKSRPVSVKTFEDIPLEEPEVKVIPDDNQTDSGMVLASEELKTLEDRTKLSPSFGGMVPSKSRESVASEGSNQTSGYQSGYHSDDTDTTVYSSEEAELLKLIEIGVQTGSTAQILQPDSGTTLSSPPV

Chorioallantoic membrane [15] = assay: Antiangiogenic activity in chicken chorioallantoic membrane assessed as reduction in number of blood vessels at 0.1 nM per egg measured after 48 hrs by CAM assay relative to control; format: functional, cell membranes; conditions: Gallus gallus
[16] = target: T1, Vascular endothelial growth factor receptor 2; conditions: at 1 µM
Description: Inhibition of VEGFR2 (unknown origin) using Poly (Glu, Tyr) 4:1 as substrate at 1 uM preincubated with substrate followed by enzyme challenge for 1 hr by ELISA relative to control

HUVEC [17] = assay: Antiproliferative activity against human HUVEC cells expressing VEGFR2 assessed as reduction in cell growth incubated for 48 hrs by MTT assay; format: functional, cell-based
HepG2 [18] = assay: Cell cycle arrest in human HepG2 cells assessed as accumulation at G0/G1 phase incuabted for 24 hrs by PI staining based flow cytometry; format: functional
[19] = target: Platelet-derived growth factor receptor alpha (Homo sapiens) (UniProt P16234); assay: Inhibition of PDGFRalpha (unknown origin) at 1 uM
HUVEC [20] = assay: Induction of apoptosis in human HUVEC cells assessed as apoptotic cells at 1 nM incubated for 24 hrs by dUTP-FITC/PI staining based flow cytometry (reference value: 4.9%); format: functional
[21] = Cytotoxicity against human LO2 cells assessed as reduction in cell viability at 10 uM relative to control; format: cell-based, L02; conditions: read-out: INH
HepG2 [22] = assay: Induction of apoptosis in human HepG2 cells assessed as necrotic cells at 10 nM incubated for 24 hrs by dUTP-FITC/PI staining based flow cytometry (reference value: 10.2%); format: functional
HUVEC [23] = assay: Cell cycle arrest in human HUVEC cells assessed as accumulation at G0/G1 phase incuabted for 24 hrs by PI staining based flow cytometry; format: functional
[24] = target: Vascular endothelial growth factor receptor 3 (Homo sapiens) (UniProt P35916); assay: Inhibition of FLT4 (unknown origin) 1 uM
HUVEC [25] = assay: Induction of apoptosis in human HUVEC cells assessed as necrotic cells at 1 nM incubated for 24 hrs by dUTP-FITC/PI staining based flow cytometry (reference value: 6.9%); format: functional
HepG2 [26] = assay: Induction of apoptosis in human HepG2 cells assessed as apoptotic cells at 10 nM incubated for 24 hrs by dUTP-FITC/PI staining based flow cytometry (reference value: 3.3%); format: functional
HepG2 [27] = assay: Cell cycle arrest in human HepG2 cells assessed as accumulation at G0/G1 phase at 10 nM incuabted for 24 hrs by PI staining based flow cytometry (reference value: 47.9%); format: functional
[28] = target: Hepatocyte growth factor receptor (Homo sapiens) (UniProt P08581); assay: Inhibition of MET (unknown origin) at 1 uM
Chain of Hepatocyte growth factor receptor (Homo sapiens) (P08581 whole entry): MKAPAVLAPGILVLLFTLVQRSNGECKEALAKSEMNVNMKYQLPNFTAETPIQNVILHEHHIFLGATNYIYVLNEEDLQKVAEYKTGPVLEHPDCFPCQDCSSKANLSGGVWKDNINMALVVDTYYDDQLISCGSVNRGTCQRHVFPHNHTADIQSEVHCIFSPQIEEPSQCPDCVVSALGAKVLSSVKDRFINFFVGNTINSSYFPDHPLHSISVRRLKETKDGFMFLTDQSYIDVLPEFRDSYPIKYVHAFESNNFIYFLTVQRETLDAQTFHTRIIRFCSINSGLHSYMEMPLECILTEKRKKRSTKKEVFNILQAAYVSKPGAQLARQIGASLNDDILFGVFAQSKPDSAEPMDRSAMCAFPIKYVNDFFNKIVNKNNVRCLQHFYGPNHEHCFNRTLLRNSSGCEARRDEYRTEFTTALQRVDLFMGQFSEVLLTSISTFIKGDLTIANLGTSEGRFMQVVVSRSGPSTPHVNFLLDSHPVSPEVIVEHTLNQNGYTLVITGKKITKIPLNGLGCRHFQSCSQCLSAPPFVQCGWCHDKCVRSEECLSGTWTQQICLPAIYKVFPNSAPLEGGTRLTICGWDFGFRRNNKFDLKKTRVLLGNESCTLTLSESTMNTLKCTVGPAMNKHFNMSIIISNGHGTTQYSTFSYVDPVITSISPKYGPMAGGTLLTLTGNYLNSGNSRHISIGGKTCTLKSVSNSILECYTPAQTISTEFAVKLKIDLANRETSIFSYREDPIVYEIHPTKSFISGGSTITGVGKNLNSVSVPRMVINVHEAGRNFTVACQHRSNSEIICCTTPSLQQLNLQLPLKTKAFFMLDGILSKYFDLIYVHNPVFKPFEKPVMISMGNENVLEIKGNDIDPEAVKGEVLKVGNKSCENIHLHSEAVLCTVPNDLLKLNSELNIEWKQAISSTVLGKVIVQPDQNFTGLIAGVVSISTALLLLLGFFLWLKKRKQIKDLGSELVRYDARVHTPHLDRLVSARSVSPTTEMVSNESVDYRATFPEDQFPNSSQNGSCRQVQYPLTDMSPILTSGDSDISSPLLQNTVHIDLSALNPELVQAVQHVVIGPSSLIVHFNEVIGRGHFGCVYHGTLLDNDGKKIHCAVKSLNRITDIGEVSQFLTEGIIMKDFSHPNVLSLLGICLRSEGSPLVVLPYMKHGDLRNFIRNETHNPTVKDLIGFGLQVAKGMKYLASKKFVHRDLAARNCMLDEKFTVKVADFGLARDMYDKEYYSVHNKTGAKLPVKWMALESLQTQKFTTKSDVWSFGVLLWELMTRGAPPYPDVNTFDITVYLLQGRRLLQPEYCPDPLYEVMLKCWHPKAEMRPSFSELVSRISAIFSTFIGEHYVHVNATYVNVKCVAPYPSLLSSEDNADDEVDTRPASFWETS

[29] = target: T1, Vascular endothelial growth factor receptor 2; assay: Inhibition of VEGFR2 (unknown origin) using Poly (Glu, Tyr) 4:1 as substrate preincubated with substrate followed by enzyme challenge for 1 hr by ELISA
HUVEC [30] = assay: Cell cycle arrest in human HUVEC cells assessed as accumulation at G0/G1 phase at 10 nM incuabted for 24 hrs by PI staining based flow cytometry (reference value: 43.2%); format: functional
A549 = assay: Antiproliferative activity against human A549 cells expressing EGFR assessed as reduction in cell growth incubated for 48 hrs by MTT assay; format: functional, cell-based; conditions: A549, 48 h
HUVEC [31] = assay: Induction of apoptosis in human HUVEC cells assessed as necrotic cells at 10 nM incubated for 24 hrs by dUTP-FITC/PI staining based flow cytometry (reference value: 6.9%); format: functional
HepG2 [32] = assay: Cell cycle arrest in human HepG2 cells assessed as accumulation at S phase at 1 nM incuabted for 24 hrs by PI staining based flow cytometry (reference value: 9.8%); format: functional
[33] = target: Platelet-derived growth factor receptor beta (Homo sapiens) (UniProt P09619); assay: Inhibition of PDGFRbeta (unknown origin) at 1 uM
[34] = target: Vascular endothelial growth factor receptor 1 (Homo sapiens) (UniProt P17948); assay: Inhibition of FLT1 (unknown origin) at 1 uM
Chain of Vascular endothelial growth factor receptor 1 (Homo sapiens) (P17948 whole entry): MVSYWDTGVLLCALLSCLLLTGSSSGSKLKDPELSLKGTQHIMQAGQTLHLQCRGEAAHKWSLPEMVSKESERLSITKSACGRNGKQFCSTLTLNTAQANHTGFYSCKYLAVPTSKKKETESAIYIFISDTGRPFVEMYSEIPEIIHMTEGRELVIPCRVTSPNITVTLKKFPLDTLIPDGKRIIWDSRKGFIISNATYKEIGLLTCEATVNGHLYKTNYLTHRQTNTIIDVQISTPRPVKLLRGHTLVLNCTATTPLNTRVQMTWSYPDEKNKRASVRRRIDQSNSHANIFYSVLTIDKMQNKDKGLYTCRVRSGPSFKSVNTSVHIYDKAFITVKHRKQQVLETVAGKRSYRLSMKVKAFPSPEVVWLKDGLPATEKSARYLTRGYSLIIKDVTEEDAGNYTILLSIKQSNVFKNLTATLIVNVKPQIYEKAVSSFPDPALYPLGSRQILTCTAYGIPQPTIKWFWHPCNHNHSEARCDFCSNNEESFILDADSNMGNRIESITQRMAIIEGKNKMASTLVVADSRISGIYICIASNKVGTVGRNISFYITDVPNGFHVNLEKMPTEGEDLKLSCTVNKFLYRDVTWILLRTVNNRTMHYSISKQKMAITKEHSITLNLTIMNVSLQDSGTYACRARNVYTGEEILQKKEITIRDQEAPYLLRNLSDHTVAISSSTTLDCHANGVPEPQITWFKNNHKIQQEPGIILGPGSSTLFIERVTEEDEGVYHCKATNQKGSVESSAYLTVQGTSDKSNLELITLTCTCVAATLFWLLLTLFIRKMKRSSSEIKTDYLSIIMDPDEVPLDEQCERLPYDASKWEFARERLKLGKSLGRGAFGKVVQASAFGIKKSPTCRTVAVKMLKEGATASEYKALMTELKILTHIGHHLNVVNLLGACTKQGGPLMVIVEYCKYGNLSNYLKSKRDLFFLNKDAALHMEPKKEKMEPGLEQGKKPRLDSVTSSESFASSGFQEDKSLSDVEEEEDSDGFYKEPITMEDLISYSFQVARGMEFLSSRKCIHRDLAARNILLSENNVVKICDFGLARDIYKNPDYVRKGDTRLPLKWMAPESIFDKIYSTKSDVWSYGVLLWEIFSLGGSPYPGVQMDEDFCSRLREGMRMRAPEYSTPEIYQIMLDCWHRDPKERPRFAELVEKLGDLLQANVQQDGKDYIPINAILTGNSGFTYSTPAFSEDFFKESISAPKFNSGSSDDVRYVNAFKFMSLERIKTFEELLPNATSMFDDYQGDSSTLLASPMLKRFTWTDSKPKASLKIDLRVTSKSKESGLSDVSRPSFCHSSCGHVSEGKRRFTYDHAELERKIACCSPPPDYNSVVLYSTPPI

HUVEC [35] = assay: Cell cycle arrest in human HUVEC cells assessed as accumulation at S phase at 1 nM incuabted for 24 hrs by PI staining based flow cytometry (reference value: 10.4%); format: functional
Chorioallantoic membrane [36] = assay: Antiangiogenic activity in chicken chorioallantoic membrane assessed as reduction in number of blood vessels measured after 48 hrs by CAM assay; format: functional, cell membranes; conditions: Gallus gallus
HUVEC [37] = assay: Induction of apoptosis in human HUVEC cells assessed as apoptotic cells at 10 nM incubated for 24 hrs by dUTP-FITC/PI staining based flow cytometry (reference value: 4.9%); format: functional
HUVEC [38] = assay: Cell cycle arrest in human HUVEC cells assessed as accumulation at S phase at 10 nM incuabted for 24 hrs by PI staining based flow cytometry (reference value: 10.4%); format: functional

**Q.** For `COc1ccc(CC(=O)Nc2ccc3[nH]c(-c4ccc(Cl)cc4)nc3c2)cc1`, which inhibition (Chorioallantoic membrane [1]) is on record?
**A.** 79%

**Q.** And the Activity (HepG2 [2])?
**A.** 7.3%

**Q.** What about the inhibition (Chorioallantoic membrane [3]) of the same compound?
**A.** 51%

**Q.** What about the Activity (HepG2 [4]) of the same compound?
**A.** 55.7%

**Q.** And the Activity (HepG2 [5])?
**A.** 6.7%

**Q.** What about the Activity (HUVEC [6]) of the same compound?
**A.** 59.3%

**Q.** And the Activity (HepG2 [7])?
**A.** 25.3%

**Q.** What about the Activity (HepG2 [8]) of the same compound?
**A.** 13.7%

**Q.** What about the IC50 (MDA-MB-231) of the same compound?
**A.** 57300 nM

**Q.** And the Activity (HUVEC [9])?
**A.** 21.3%

**Q.** And the Activity (HepG2 [10])?
**A.** 36.2%

**Q.** What about the IC50 (HepG2 [11]) of the same compound?
**A.** 2570 nM

**Q.** What about the Activity (HUVEC [12]) of the same compound?
**A.** 31.8%

**Q.** What about the inhibition [13] of the same compound?
**A.** 58.3%

**Q.** And the inhibition [14]?
**A.** Active

**Q.** And the inhibition (Chorioallantoic membrane [15])?
**A.** 28%

**Q.** And the inhibition [16]?
**A.** 103%

**Q.** And the IC50 (HUVEC [17])?
**A.** 1470 nM

**Q.** What about the Activity (HepG2 [18]) of the same compound?
**A.** Dose-dependent effect

**Q.** What about the inhibition [19] of the same compound?
**A.** -3.5%

**Q.** And the Activity (HUVEC [20])?
**A.** 18.9%

**Q.** What about the cytotoxicity at 10 µM [21] of the same compound?
**A.** 56.4%

**Q.** What about the Activity (HepG2 [22]) of the same compound?
**A.** 5.9%

**Q.** And the Activity (HUVEC [23])?
**A.** Dose-dependent effect

**Q.** What about the inhibition [24] of the same compound?
**A.** 18.5%

**Q.** What about the Activity (HUVEC [25]) of the same compound?
**A.** 6.9%

**Q.** What about the Activity (HepG2 [26]) of the same compound?
**A.** 28.1%

**Q.** And the Activity (HepG2 [27])?
**A.** 68%

**Q.** What about the inhibition [28] of the same compound?
**A.** -3.6%

**Q.** What about the IC50 [29] of the same compound?
**A.** 51.4 nM

**Q.** What about the Activity (HUVEC [30]) of the same compound?
**A.** 71.4%

**Q.** And the IC50 (A549)?
**A.** 73800 nM

**Q.** And the Activity (HUVEC [31])?
**A.** 2.5%

**Q.** And the Activity (HepG2 [32])?
**A.** 8.1%

**Q.** What about the inhibition [33] of the same compound?
**A.** 2.7%

**Q.** What about the inhibition [34] of the same compound?
**A.** 26.1%

**Q.** And the Activity (HUVEC [35])?
**A.** 8.9%

**Q.** And the inhibition (Chorioallantoic membrane [36])?
**A.** Dose-dependent effect

**Q.** And the Activity (HUVEC [37])?
**A.** 34.3%

**Q.** What about the Activity (HUVEC [38]) of the same compound?
**A.** 7.3%
